Key:
[1] = system: Intestinal Phosphate Absorption; test: Intestinal phosphate absorption: oral 33P dose after gavage of phosphate binder; format: in vivo, rats; settings: for amount of 33P remaining in the digestive tract compared with water (FIG. 3A) / serum 33P levels compared with water (FIG. 3B): 10 mg calcium, 14.4 mg Renagel or novel binder (Table 1); for binding / absorption of an oral 33P dose (summary): administered orally in rats; for 33P remaining in the intestine compared to Renagel, dose response study (FIG. 4A) / serum 33P levels compared to Renagel, dose response study (FIG. 4B): two highest levels of DAB-8 and DAB-16, highest level of DAB-64, vs 14.4 mg Renagel
Protocol: (§1) Animals. Male Sprague-Dawley rats (Harlan Sprague-Dawley, Madison, Wis.) weighing approximately 120 grams were used in all experiments.
In experiments to measure ^33P absorption, the rats were fed a laboratory chow diet (Lab Diet 5012, Richmond, Ind.) containing 1% calcium and 0.7% phosphorus ad libitum for less than one week prior to the experiment.
Intestinal Phosphate Absorption. Following an overnight fast, rats were administered 0.5 mL water or an oral phosphate binder dissolved in water via gastric gavage. A second dose of 0.5 mL containing 3 μCi ^33P (as H3PO4, specific activity 155.8 Ci/mg, New England Nuclear/Perkin Elmer, Boston, Mass.) in a 10, 50, or 100 mM KH2PO4 buffer at pH 7.4 was immediately administered via gastric gavage. Rats were killed by CO2 asphyxiation immediately or 60 minutes after the oral dose. The rats killed immediately (labeled “0 min control” in figures) were used to determine if the oral ^33P dose was properly administered and completely recovered.
Blood was collected via heart puncture and centrifuged at 1500×g for 15 minutes at 22° C. to yield serum. A suture was tied to the cranial end of the esophagus to contain liquid inside the stomach. The entire digestive tract was then removed and allowed to dissolve for several days in concentrated HNO3 (approximately 1 mL HNO3 per gram tissue). The exact volume of the dissolved digestive tract was determined by diluting the dissolved tissues to equal volumes with water.
The amount of radioactivity in total body serum and total volume of dissolved tissue was determined following liquid scintillation counting of 50 μL aliquots in triplicate (Tri-Carb Liquid Scintillation Analyzer, Perkin-Elmer/Packard, Boston, Mass.). Total body serum was estimated to be 40 mL serum/kg body weight. (Hawk T et al., 1999, Formulary for laboratory animals, Ames, Iowa: Iowa State University Press.)
(§2) Statistical analysis. Data are presented as means±standard error of the means (SEM). Treatment groups were compared by a fully factorial analysis of variance (ANOVA) and means were subjected to Tukey, Scheffe, and Fisher's Least-Significant-Difference (LSD) tests (Systat 5.2.1, Systat Software, Inc., Point Richmond, Calif.). Differences were considered significant if at least two of the tests detected significance with a p-value <0.05, unless specified otherwise.
Materials and Methods. The relevant materials and methods were the same as set forth above except that instead of using “0.5 mL of water or 39.5 mg calcium acetate, 14.4 mg RENAGEL, or up to 132.8 mg of test dendrimer,” the following was used “0.5 mL of water, 14.4 mg RENAGEL or 10 mg DAB-8 as the hydroacetate or hydrocitrate form dissolved in water.”

[2] = system: Intestinal Phosphate Absorption; test: Fecal calcium and phosphorus measurements, binder in purified diet; format: in vivo, rats; settings: for mg P per gram feces: 48 h fecal collection, mean ± SEM, control 3.79 ± 0.18; for fecal phosphorus levels versus control diet or diet with 0.15% Renagel / increase in fecal phosphorus versus the increase from excess calcium or an equivalent amount of Renagel: 0.15% of diet; for fecal phosphorus levels versus control diet or diet with 0.15% Renagel: DAB-8 and DAB-16 significant by Fisher's LSD test only; for increase in fecal phosphorus versus the increase from excess calcium or an equivalent amount of Renagel: Fisher's LSD test only
From the text: as §1
In experiments to measure fecal calcium and phosphorus levels, rats were fed purified diet described previously for 9 days. (Suda T et al., Biological activity of 25-hydroxyergocalciferol in rats, J Nutr 1970, 100:1049-1052). This diet was mixed with egg white protein (Harlan Teklad, Madison, Wis.) and contained 0.20% inorganic phosphorus and 0.47% calcium. The purified diet was supplemented with 100 μL soybean oil (Wesson oil, ConAgra Foods, Irvine, Calif.) containing 500 μg α-tocopherol, 60 μg menadione, 40 μg β-carotene, and 1.875 μg cholecalciferol three times each week.
Fecal calcium and phosphorus measurements. Rats were fed the purified diet described above or the same diet with 1.2% calcium, 0.15% Renagel®, or 0.15% DAB-4, DAB-8, or DAB-16 for 7 days. Rats were then moved to metabolic cages and fecal matter was collected for 48 hours. Fecal samples were frozen, lyophilized, and heated to over 600° C. overnight in a muffle oven. Remaining ash was then dissolved overnight in 25 mL 6 N HCl. The calcium concentration of the acid was determined by flame atomic absorption spectroscopy (Model 3110, Perkin Elmer, Norwalk, Conn.) using an aliquot of the dissolved ash diluted 1:40 with 1 g/L LaCl3. The phosphorus concentration of an aliquot of the dissolved ash was determined by a colorimetric assay described previously. (Itaya K et al., A new micromethod for the colorimetric determination of inorganic phosphate, Clin Chim Acta 1966, 14:361-366).
as §2

rats = test: Oral tolerability of DAB dendrimers fed in the diet; format: in vivo; settings: as hydrochlorides; for tolerability in rats: 0.15% of the diet; for tolerability in rats, observation: 0.3% or 0.6% of the diet, after 5 days (data not shown)
From the text: Unfortunately, little is known regarding the toxicity of DAB dendrimers when administered orally. Previous research has shown DAB dendrimers to be cytotoxic in vitro (Duncan R et al., Dendrimer biocompatibility and toxicity, Adv Drug Deliv Rev 2005, 57:2215-2237) and when administered intravenously, the DAB dendrimers are lethal. (Schatzlein A G et al., Preferential liver gene expression with polypropylenimine dendrimers, J Control Release 2005, 101:247-258). In our experiments, however, the DAB dendrimers were well tolerated by rats when administered orally.

[3] = 14.4 mg Renagel or 10 mg DAB-8 as acetate or citrate, 10 mM KH2PO4, 60 min
[4] = 10 mM KH2PO4, 60 min, listed as DAB-16-Cl

Compound	amount of 33P remaining in the digestive tract compared with water (FIG. 3A) ([1]; 10 mM KH2PO4, 60 min)	serum 33P levels compared with water (FIG. 3B) ([1]; 10 mM KH2PO4, 60 min)	mg P per gram feces ([2]; 0.15% of diet for 7 days) [mg P per gram feces]	fecal phosphorus levels versus control diet or diet with 0.15% Renagel [2]	33P remaining in the intestine compared to Renagel, dose response study (FIG. 4A) [1]	serum 33P levels compared to Renagel, dose response study (FIG. 4B) [1]	tolerability in rats (rats)	tolerability in rats, observation (rats)	further results
Cl.Cl.Cl.Cl.NC[C@@H](N)[C@@H](N)CN [KB-54, erythro-1,2,3,4-tetraminobutane tetrahydrochloride]	significantly increased	significantly reduced	–	–	–	–	–	–	binding / absorption of an oral 33P dose (summary) [1]: reduced the absorption
DAB-Am-8, Polypropylenimine octaamine Dendrimer citrate (Generation 2.0) [DAB-8 as citrate]	–	–	–	–	–	–	–	–	33P in the serum compared with vehicle pretreatment (FIG. 26) [1, 3]: significantly less; 33P retained in the gut compared with vehicle pretreatment (FIG. 25) [1, 3]: significantly more
polypropylenimine octaamine Dendrimer perhydrochloride [DAB-8]	significantly increased	significantly reduced	4.71 ± 0.53	significantly increased	significantly increased	significantly reduced	tolerated	only softened stool was observed	increase in fecal phosphorus versus the increase from excess calcium or an equivalent amount of Renagel [2]: significantly higher; amount of 33P remaining in the digestive tract compared to a comparable amount of Renagel (FIG. 3A) ([1]; 10 mM KH2PO4, 60 min): bound significantly more; serum 33P levels compared to a comparable amount of Renagel (FIG. 3B) ([1]; 10 mM KH2PO4, 60 min): significantly reduced; amount of 33P remaining in the digestive tract compared to a comparable amount of Renagel (FIG. 3A) ([1]; 10 mM KH2PO4, 60 min, listed as DAB-8-Cl): significantly increased
Polypropylenimine hexadecaamine Dendrimer perhydrochloride [DAB-16]	significantly increased	significantly reduced	4.78 ± 0.30	significantly increased	significantly increased	significantly reduced	tolerated	only softened stool was observed	increase in fecal phosphorus versus the increase from excess calcium or an equivalent amount of Renagel [2]: significantly higher; 33P retained in the digestive tract versus DAB-4 at an equivalent amount of free amino groups (FIG. 5A) ([1]; 10 mM KH2PO4, 60 min): bound significantly more; 33P retained in the digestive tract versus DAB-8 at equimolar amounts (FIG. 5A) ([1]; 10 mM KH2PO4, 60 min): retained significantly more; amount of 33P remaining in the digestive tract compared to a comparable amount of Renagel (FIG. 3A) ([1]; 10 mM KH2PO4, 60 min): bound significantly more; serum 33P levels compared to a comparable amount of Renagel (FIG. 3B) ([1]; 10 mM KH2PO4, 60 min): significantly reduced; 33P retained in the digestive tract versus DAB-8 at equimolar amounts (FIG. 5A) [1, 4]: significantly more; amount of 33P remaining in the digestive tract compared to a comparable amount of Renagel (FIG. 3A) [1, 4]: significantly increased; serum 33P levels compared with water, mechanism study (FIG. 5B) ([1]; 13.9 mg, the only level of binder with significant effect): significantly reduce
CC(=O)[O-].CC(=O)[O-].[Ca+2] [calcium, Calcium acetate, reference compound]	significantly increased	significantly reduced	–	–	–	–	–	–	mg P per gram feces ([2]; 1.20% Ca diet for 7 days): 4.39 ± 0.23 mg P per gram feces; fecal phosphorus versus control diet ([2]; 1.20% calcium diet): increased, though not significantly; 33P remaining in the intestine after 60 minutes compared with water (FIG. 2A) ([1]; 20 mg calcium (as calcium acetate) or 14.4 mg Renagel by gavage, 33P in 10, 50 or 100 mM KH2PO4, fasted rats): significantly more; 33P bound in the intestine compared with 14.4 mg Renagel (FIG. 2A) ([1]; 20 mg calcium, difference significant in 10 or 100 mM phosphate, 60 min): bound more ^33P in the intestine; serum 33P levels compared with water (FIG. 2B) ([1]; calcium (printed 10 mg) or 14.4 mg Renagel, 10, 50 or 100 mM KH2PO4, 60 min): significant decrease
Cl.Cl.N[C@@H]1CO[C@@H]2[C@H]1OC[C@H]2N [FC, 1,4:3,6-Dianhydro-2,5-diamino-2,5-dideoxy-D-iditol dihydrochloride]	did not affect	slight, but significant, decrease	–	–	–	–	–	–	binding / absorption of an oral 33P dose (summary) [1]: does not appear to bind
Cl.Cl.Cl.Cl.Cl.Cl.NCCCN(CCCN)CCCCN(CCCN)CCCN [DAB-4, polypropylenimine tetraamine Dendrimer perhydrochloride]	significantly increased	significantly reduced	4.30 ± 0.13	increased, though not significantly	–	–	tolerated	only softened stool was observed	–
Polypropylenimine tetrahexacontaamine Dendrimer perhydrochloride [DAB-64]	significantly increased	significantly reduced	–	–	significantly increased	significantly reduced	–	–	–

Reference: patent US8114393B2, “Methods and compositions for phosphate binding” (Wisconsin Alumni Research Foundation, priority 2005, dated 2012)
